These results are taken from ChEMBL document CHEMBL4814058, “Light-inducible control of cellular proliferation and differentiation by a Hedgehog signaling inhibitor” (Bioorg Med Chem, 2021).

Activity calls are given as the source filed them. The rule behind the calls is not given here.

The subject of data set [1] is NIH/3T3. Nature of the data set: Inhibition of hedgehog signalling in mouse NIH/3T3 cells assessed as reduction in Ptc mRNA expression at 0.1 to 10 uM measured after 6 hrs by RT-PCR analysis. The data set is classed as cell-based. Conditions: dose 0.1-10 µM.
The nature of data set [2]: Effect on differentiation of ICR mouse cerebellar granule neuron assessed as effect on neurite length of Ki67-negative cells at 100 nM incubated for 48 hrs by TUBB3 staining based immunofluorescence assay. Format: tissue-based. Conditions: cerebellar granule neurone, 0.1 µM.
Data set [3] in a line: Effect on differentiation of ICR mouse cerebellar granule neuron assessed as effect on neurite length of Ki67-positive cells at 100 nM incubated for 48 hrs by TUBB3 staining based immunofluorescence assay. Format: tissue-based. The following applies: cerebellar granule neurone, 0.1 µM.
For data set [4], the system named is Cerebellar granule neurone. Nature of the data set: Antiproliferative activity against ICR mouse cerebellar granule neurons assessed as reduction in Ki67 expression at 100 nM irradiated with 4 J/cm2 light followed by incubation with compound for 48 hrs by immunostaining analysis. Format: functional, tissue-based.
Data set [5] has as its system NIH/3T3. Nature of the data set: Inhibition of SAG-induced hedgehog signalling in mouse NIH/3T3 cells assessed as reduction in Shh mRNA expression at 0.1 to 10 uM measured after 6 hrs by RT-PCR analysis. Conditions: dose 0.1-10 µM. The data set is classed as cell-based.
The nature of data set [6]: Effect on differentiation of ICR mouse cerebellar granule neuron assessed as effect on Ki67-negative cells with neurite outgrowth at 100 nM incubated for 48 hrs by TUBB3 staining based immunofluorescence assay. Format: tissue-based. Conditions: cerebellar granule neurone, 0.1 µM.
Data set [7] has as its system NIH/3T3. Nature of the data set: Inhibition of SAG-induced hedgehog signalling in mouse NIH/3T3 cells assessed as reduction in Gli1 mRNA expression at > 1 uM measured after 6 hrs by RT-PCR analysis. Format: cell-based. The following applies: dose microM >1, time 6.0 hrs.
The test system of data set [8] is NIH3T3. Nature of the data set: Cytotoxicity against mouse NIH/3T3 cells assessed as reduction in cell viability at 1 to 10 uM irradiated with 4 J/cm2 light followed by compound exposure and measured after 6 hrs by MTT assay. Format: cell-based. The following applies: nih3t3, 6 h, dose 1-10 µM.
Data set [9] has as its system NIH/3T3. Nature of the data set: Inhibition of SAG-induced hedgehog signalling in mouse NIH/3T3 cells assessed as reduction in Gli1 mRNA expression at 0.1 to 10 uM measured after 6 hrs by RT-PCR analysis. Format: cell-based. Conditions: dose 0.1-10 µM.
Data set [10] relates to NIH/3T3. Nature of the data set: Inhibition of hedgehog signalling in mouse NIH/3T3 cells assessed as reduction in Shh mRNA expression at 0.1 to 10 uM measured after 6 hrs by RT-PCR analysis. The data set is classed as cell-based. The following applies: dose 0.1-10 µM.
Data set [11] deals with NIH/3T3. Nature of the data set: Inhibition of SAG-induced hedgehog signalling in mouse NIH/3T3 cells assessed as reduction in Ptc mRNA expression at 0.1 to 10 uM measured after 6 hrs by RT-PCR analysis. Format: cell-based. The following applies: dose 0.1-10 µM.
The nature of data set [12]: Effect on differentiation of ICR mouse cerebellar granule neuron assessed as effect on Ki67-positive cells with low neurites at 100 nM incubated for 48 hrs by TUBB3 staining based immunofluorescence assay. The data set is classed as tissue-based. Conditions: cerebellar granule neurone, 0.1 µM.
Data set [13] has as its system NIH3T3. Nature of the data set: Cytotoxicity against mouse NIH/3T3 cells assessed as reduction in cell viability at 1 to 10 uM incubated for 6 hrs by MTT assay. Format: cell-based. The following applies: nih3t3, 6 h, dose 1-10 µM.
In data set [14] the test system is NIH/3T3. Nature of the data set: Inhibition of hedgehog signalling in mouse NIH/3T3 cells assessed as reduction in Gli1 mRNA expression at 0.1 to 10 uM measured after 6 hrs by RT-PCR analysis. Conditions: dose 0.1-10 µM. Format: cell-based.
Data set [15] relates to NIH/3T3. Nature of the data set: Inhibition of hedgehog signalling in mouse NIH/3T3 cells assessed as reduction in Gli1 mRNA expression at 1 uM measured after 6 hrs by RT-PCR analysis. Format: cell-based.
The nature of data set [16]: Effect on differentiation of ICR mouse cerebellar granule neuron assessed as effect on neurite length of Ki67-positive cells at 100 nM irradiated with 4 J/cm2 light followed by incubation with compound for 48 hrs by TUBB3 staining based immunofluorescence assay. Conditions: cerebellar granule neurone, 0.1 µM. The data set is classed as tissue-based.
The test system of data set [17] is Cerebellar granule neurone. Nature of the data set: Antiproliferative activity against ICR mouse cerebellar granule neurons assessed as reduction in Ki67 expression at 100 nM incubated for 48 hrs by immunostaining analysis. The data set is classed as functional, tissue-based.
Data set [18] can be described thus: Photostability of compound assessed as drug degradation at 1 mM irradiated with 8 J/cm2 light by HPLC/MS analysis. Format: physicochemical. Conditions: read-out: Drug degradation.
The nature of data set [19]: Effect on differentiation of ICR mouse cerebellar granule neuron assessed as effect on Ki67-positive cells with low neurites at 100 nM irradiated with 4 J/cm2 light followed by incubation with compound for 48 hrs by TUBB3 staining based immunofluorescence assay. The data set is classed as tissue-based. The following applies: cerebellar granule neurone, 0.1 µM.
The test system of data set [20] is NIH/3T3. Nature of the data set: Inhibition of SAG-induced hedgehog signalling in mouse NIH/3T3 cells assessed as reduction in Gli1 mRNA expression at 1 uM irradiated with 4 J/cm2 light followed by compound exposure and measured after 6 hrs by RT-PCR analysis. The data set is classed as cell-based.
The nature of data set [21]: Photostability of compound assessed as drug degradation at 1 mM irradiated with 2 J/cm2 light by HPLC/MS analysis. Conditions: read-out: Drug degradation. Format: physicochemical.
Data set [22] is described as follows: Effect on differentiation of ICR mouse cerebellar granule neuron assessed as effect on Ki67-negative cells with neurite outgrowth at 100 nM irradiated with 4 J/cm2 light followed by incubation with compound for 48 hrs by TUBB3 staining based immunofluorescence assay. Format: tissue-based. The following applies: cerebellar granule neurone, 0.1 µM.
Data set [23] can be described thus: Effect on differentiation of ICR mouse cerebellar granule neuron assessed as effect on neurite length of Ki67-negative cells at 100 nM irradiated with 4 J/cm2 light followed by incubation with compound for 48 hrs by TUBB3 staining based immunofluorescence assay. Format: tissue-based. The following applies: cerebellar granule neurone, 0.1 µM.

With `CCCN[C@H]1CC[C@H](N(Cc2cccc(-c3ccncc3)c2)C(=O)c2sc3ccccc3c2Cl)CC1`, the inhibition result in data set [1], in [5], in [10] and in [14] was “inactive” in each case. For the same compound, the Activity entry in [2], in data set [3], in [6], in data set [8], in data set [12] and in data set [13] was “Non-Toxic” throughout. In addition, the result in data set [4] was Active. Besides, the inhibition entry in data set [7], in data set [9] and in [11] was “Active” in each case.

On to `CC1=C2C[C@H]3[C@@H](CC=C4C[C@@H](O)CC[C@@]43C)[C@@H]2CC[C@]12O[C@@H]1C[C@H](C)CN[C@H]1[C@H]2C`, for which the inhibition entry in data set [1], in data set [5], in [10] and in data set [14] was “inactive” each time. Also, the inhibition entry in data set [9] and in data set [11] was “Active” throughout.

With `CCCN(C(=O)OC(C)c1cc(OC)c(OCCCC(=O)O)cc1[N+](=O)[O-])[C@H]1CC[C@H](N(Cc2cccc(-c3ccncc3)c2)C(=O)c2sc3ccccc3c2Cl)CC1` (stereo partly specified), in data set [15], the inhibition result is “inactive”. In addition, the Activity entry in [2], in [16], in data set [3], in data set [6], in data set [8] and in data set [19] was “Non-Toxic” each time. Also, the Activity entry in data set [12], in data set [22], in data set [23] and in data set [13] was “Non-Toxic” throughout. Also, in data set [17], the outcome was inactive. Further, the outcome in [4] was Active. In addition, the figures for the degraded at 1000 µM in data set [18] and in data set [21] were 100% and 90%, respectively. Also, in data set [20], the inhibition entry is “Active”.
